# Laboratory results reported in patent US8840934B2 (Rainbow Pharmaceutical SA, priority 2009, dated 2014).
# Columns and labels:
# [1] = system: IL-6; assay: Serum IL-6 (ELISA) in TAA-treated Quinster rats given ammonium chloride per os; assay type: in vivo; conditions: 12 hours post the third TAA injection, mean ± SD
# Description: (§1) Thioacetamid (TAA) was given to adult male Quinster rats with a course of 400 mg TAA/kg B.W. every 24 hours and for 3 consecutive days. […] The animals were sacrificed in 6 and 12 hours after the 3rd treatment with TTA. TNF-α and IL-6 levels were measured in serum (ELISA test) after 12 hours post the third TAA injection and the results are reported in the following table.
# [2] = system: TNF-α; assay: Serum TNF-α (ELISA) in TAA-treated Quinster rats given ammonium chloride per os; assay type: in vivo; conditions: 12 hours post the third TAA injection, mean ± SD
# Description: as §1
# [3] = system: hyaluronic acid; assay: Hyaluronic acid levels in treated Quinster rats; assay type: in vivo
# From the text: The levels of hyaluronic acid in patients with high-grade hepatic damage are usually high, but they appeared decreased in the treated Quinster rats. Furthermore, additional biochemical factors appeared improved.
# [4] = system: chronic hepatitis B; assay: Clinical treatment of a patient with chronic hepatitis B, viral charge; assay type: in vivo, human; conditions: 3 gr/day by the protocol, before treatment 1.65 × 10^6 IU/ml
# Description: (§2) The above protocol of administration can be repeated several times until the completion of the treatment as judged by the clinician. For example, 21 cycles of treatment are performed, which complies with the natural time of regeneration of liver after a partial hepatectomy in patients. Therefore, the duration of the treatment can be from 1 to 6 months or from 3 to 4 months for patients with partial necrosis.
# (§3) Patients were treated according to the above described protocol, using a dose of 3 gr/day.
# [5] = system: hepatitis C; assay: Clinical treatment of a patient with hepatitis C, viral charge; assay type: in vivo, human; conditions: Patient B, 3 gr/day by the protocol, before treatment 1.65 × 10^8 IU/ml
# Description: as §2, §3
# [6] = system: Hepatitis Virus; assay: Use of NH4Cl in treating hepatitis virus, reduction of viral charge across patients; assay type: in vivo; conditions: in humans; Patients A and B, 3 months of treatment, 3 gr/day
# Description: as §3
compound,measurement,setting,value
"Cl.N [NH4Cl, ammonium chloride]",IL-6,"[1]; Group II, at least 8 animals per group, Control 11 ± 5, Group I 58 ± 9",69 ± 12 pg/dL
same,IL-6,[1]; Group III,92 ± 8 pg/dL
same,IL-6,[1]; Group IV,73 ± 12 pg/dL
same,TNF-α,"[2]; Group II, Control 21 ± 4, Group I 65 ± 15",52 ± 17 pg/dL
same,TNF-α,[2]; Group III,32 ± 6 pg/dL
same,TNF-α,[2]; Group IV,45 ± 9 pg/dL
same,levels of hyaluronic acid,[3],decreased
same,Viral charge after 3 months of treatment,[4],1.65 × 10^3 IU/ml
same,Viral charge after 3 months of treatment,[5],1.65 × 10^6 IU/ml
same,factor of reduction of the viral charge,[6],at least 10^2
